The test system of the assay is 18S and BRD4 transcripts in MOLM13 cells. Briefly: Cellular RNA degradation reactions (acCLICK-Seq), RT-qPCR. Format: cell-based, human. The protocol:
MOLM13 cells were suspended RPMI-1640 media (Gibco) supplemented with 10% v/v FBS and 1% v/v penicillin/streptomycin/L-glutamine at a density of 1,000,000 cells mL^-1. The cells were incubated for 30 min at 37° C. followed by addition of ethyl-3-butynoate at a final concentration of 200 μM. Treated cells were incubated for further 24 h at 37° C. […] Levels of specific RNAs were measured using fast mode of QuantStudio 3 Real-Time PCR System (Applied Biosystems) and PowerUpTM SYBR Green Master Mix (Applied Biosystems) according to the manufacturer's instructions. In the qPCR analysis RNA levels were normalised to the 5S gene ([…]) or the GAPDH gene (glycoCLICK-seq). These housekeeping gene was chosen as their levels fluctuated the least under various conditions tested.
On the technique in general: In qPCR the cycle at which signal appears reflects the starting amount.

Consider `C#CCC(=O)OCC` [ethyl-3-butynoate, Ethyl-3-butynoate], for which, where the note is “WT MOLM13, ethyl-3-butynoate 200 μM 24 h, then click-degrader 1 400 μM CuAAC”, the “relative expression levels of 18S and BRD4 transcripts, clicked versus non-clicked control cells” value was “reduction”. For the setting “cells with NAT10 knocked-out”, the “expression levels of 18S and BRD4 transcripts in clicked cells” value is listed as “rescued”.

(Values after patent US20230272460A1, “Method for Targeted Nucleic Acid Cleavage” (Cambridge Enterprise Limited, priority 2020, published 2023).)
